Experimental data from patent US20090024021A1, “Methods and Systems for Using Transcranial Magnetic Stimulation and Functional Brain Mapping for Examining Cortical Sensitivity, Brain Communication, and Effects of Medication” (priority 2002, published 2009).
“Also recorded” adds a separate entry of the source.

Experiments:
[1] = tested on: motor corticospinal pathways; conditions: volunteers or patients with complex partial seizures; cited from earlier work
[2] = tested on: left prefrontal cortex; experiment: Interleaved TMS/phMRI (BOLD fMRI) with TMS over prefrontal cortex; format: in vivo, human; conditions: for Voxels, effect of LTG (between day) / Z-score, effect of LTG (between day): Prefrontal Cortex Stimulation, LTG-Placebo
Protocol: (§1) Study design: We performed a randomized, double-blind, crossover trial involving two visits at least one week apart (FIG. 8). […] Serum LTG levels, RMTs, and interleaved TMS/phMRI images during both motor and then prefrontal TMS were then gathered for each subject. One week later they received LTG or placebo again, followed by identical RMT and interleaved TMS/phMRI studies.
Combined TMS and MRI: Immediately following RMT determination, interleaved TMS/phMRI acquisitions were performed in a Picker EDGE 1.5 T MR scanner with actively shielded magnet and high-performance gradients (27 mT/m, 72 T/m/sec) using a typical gradient echo, echo planar imaging (EPI) fMRI sequence (tip angle=90, TR=3 sec, FOV 27.0 cm, fifteen 7 mm thick slices, 1 mm gap). TMS was delivered using a Dantec MagPro with a special nonferromagnetic TMS coil of figure-8 design with an 8-meter cable (Dantec Medical A/S, Skovlunde, Denmark) and a room set up identical to prior TMS/fMRI studies from our group. TMS pulses and the fMRI sequence were interleaved as described before^21. Each cycle, illustrated in FIG. 9, consisted of six 21-sec sub-cycles—four Test and two task (100% RMT stimulation and 120% RMT stimulation). During each sub-cycle, the scanner acquired seven sets of 15 transverse images. During the task sub-cycles the TMS was triggered 100 ms after every […] image acquisition to produce a TMS stimulation rate of 1 Hz. The entire TMS/fMRI sequence lasted 882 sec (14.7 min).
On each visit, immediately after the Motor Cortex MRI study, subjects were removed from the scanner and the TMS device was moved to position it over the left prefrontal cortex. The left prefrontal cortex stimulation site was defined as a location 5-cm rostral and in a parasagittal plane from the site of maximal APB stimulation. Subjects then reentered the scanner for the prefrontal TMS scan, which was identical to the Motor study described above except for the TMS coil location.
Individual fMRI Data Analyses: MR scans were transferred into ANALYZE format and then further processed on Sun workstations (Sun Microsystems, Palo Alto, Calif.). Scans were checked using MEDx3.3 (Sensor Systems Inc, Sterling, Va.) for movement across runs, and then were coregistered to a mean image using automatic image registration. […] After correction of motion, we used a delayed boxcar model, employed a high-pass filter to remove signal drift, cardiac and respiratory effects, and other low frequency artifacts. Then, we spatially transformed each subject's data into the Talairach Atlas (input voxel dimensions, 2.1×2.1×8 mm, to output voxel dimensions, 4×4×4 mm), smoothed (4×2 mm) the data and generated z map with the Statistical Parametric Mapping (SPM) 96 module in MEDx3.3. We assumed an uncorrected F threshold UF P>0.99 to preserve as many voxels as possible for the cluster analysis.
Group fMRI Data Analyses: All subject's unthresholded z maps were combined based on comparison of condition (TMS vs Rest), intensity (100% RMT-TMS vs 120% RMT-TMS), visit (LTG vs Placebo). The combined group z maps were thresholded using z≧3.09 (p≦0.001) and cluster statistical weight (spatial extent threshold) of p<0.05. We used either paired or unpaired t-tests in MEDx3.3 for all comparisons of interest and both areas of stimulation.
Magnitude of BOLD time course response: To compare the magnitudes of BOLD signal changes, two types of data were recorded. The different maps of LTG and placebo were used to make a mask of left motor cortex (82 voxels) and a mask of left hippocampus (19 voxels) (FIGS. 11A and 11B bottom panels). The masks used to define location were taken as an index of relative peak intensity above noise. According to the masks' Talairach coordinates, the mean signal intensity of the highest six contiguous voxels (two in each slice) in each subject was extracted from motor cortex or hippocampus with SPM plotting in MEDx.

[3] = Safety and tolerability in the crossover trial; format: in vivo, human; conditions: single oral dose of 325 mg LTG; healthy young men
Protocol: as §1
General Procedure: After arriving at the laboratory in the early afternoon, baseline RMT was determined and baseline plasma levels of LTG were drawn. They were then given a single oral dose of 325 mg LTG or placebo. They then waited quietly for 3 hours. Three hours after taking the oral pill, RMT was determined and serum plasma levels were again drawn.

SMILES: Nc1nnc(-c2cccc(Cl)c2Cl)c(N)n1 [LTG, Lamotrigine]
- resting motor threshold (RMT) [1]: significantly increased
- number of active voxels in hippocampus, compared with placebo ([2]; 100% RMT minus rest over prefrontal cortex, left hippocampus, 8 subjects, Wilcoxon p=0.04): significantly more; also recorded: significantly increased
- Z-score, region of activation ([2]; LTG day, within day, n = 8, 100% RMT-Rest, Left Hippocampus, Talairach −24,−8,−24): 3.53
- Z-score, region of activation ([2]; LTG day, within day, n = 8, 100% RMT-Rest, Left cingulated gyrus, Talairach −8,−8,28): 4.08
- Z-score, region of activation ([2]; LTG day, within day, n = 8, 100% RMT-Rest, Left middle frontal gyrus (BA 6), Talairach −32,4,60): 4.04
- Z-score, region of activation ([2]; LTG day, within day, n = 8, 100% RMT-Rest, Right hippocampus, Amygdala, Talairach 20,−8,−16): 3.66
- Z-score, region of activation ([2]; LTG day, within day, n = 8, 100% RMT-Rest, Right insula (BA 13), Talairach 52,−28,20): 4.26
- Z-score, region of activation ([2]; LTG day, within day, n = 8, 100% RMT-Rest, Right middle frontal gyrus, Talairach 40,48,16): 3.96
- Z-score, region of activation ([2]; LTG day, within day, n = 8, 100% RMT-Rest, Right postcentral gyrus (BA 3), Talairach 52,−16,40): 3.18
- Z-score, region of activation ([2]; LTG day, within day, n = 8, 100% RMT-Rest, Right precentral gyrus, Talairach 36,−4,28): 4.02
- Region of activation ([2]; LTG day, within day, n = 8, 120% RMT-100%): No activity
- Z-score, region of activation ([2]; LTG day, within day, n = 8, 120% RMT-Rest, Left cingulate gyrus, Talairach −8,4,36): 3.98
- Z-score, region of activation ([2]; LTG day, within day, n = 8, 120% RMT-Rest, Left medial frontal gyrus (BA 6), Talairach −48,44,−4): 4.15
- Z-score, region of activation ([2]; LTG day, within day, n = 8, 120% RMT-Rest, Left postcentral gyrus (BA 2), Talairach −56,−24,36): 4.12
- Z-score, region of activation ([2]; LTG day, within day, n = 8, 120% RMT-Rest, Left superior temporal gyrus, Talairach −60,4,−4): 4.14
- Z-score, region of activation ([2]; LTG day, within day, n = 8, 120% RMT-Rest, Right precentral gyrus, Talairach 52,−8,44): 4.31
- Z-score, region of activation ([2]; LTG day, within day, n = 8, 120% RMT-Rest, Right superior temporal gyrus, Talairach 56,−12,8): 4.53
- Voxels, effect of LTG (between day) ([2]; Gyrus frontal medius, Right): 35
- Z-score, effect of LTG (between day) ([2]; Gyrus frontal medius, Right, Talairach 30,25,41, p < .01): 2.83
- Voxels, effect of LTG (between day) ([2]; Hippocampus, Left): 19
- Z-score, effect of LTG (between day) ([2]; Hippocampus, Left, Talairach −25,−11,−25, p < .05): 2.26
- Voxels, effect of LTG (between day) ([2]; Insula, Right): 57
- Z-score, effect of LTG (between day) ([2]; Insula, Right, Talairach 39,13,1, p < .01): 2.83
- Voxels, effect of LTG (between day) ([2]; Postcentral gyrus, Right): 59
- Z-score, effect of LTG (between day) ([2]; Postcentral gyrus, Right, Talairach 53,−32,40, p < .01): 2.83
- Voxels, effect of LTG (between day) ([2]; Temporal lobe, Left): 112
- Z-score, effect of LTG (between day) ([2]; Temporal lobe, Left, Talairach −43,15,−25, p < .001): 3.78
- brain activity in the hippocampus and the orbital frontal gyrus, compared to placebo ([2]; formal between-day analysis, 100% RMT prefrontal stimulation vs rest, 8 subjects): increased brain activity; also recorded: increases this activity
- % BOLD signal change in left hippocampus, LTG vs placebo, entire time series ([2]; prefrontal TMS, 8 subjects, ANOVA F=1.12, p=0.326): failed to show significant differences
- % BOLD change in left hippocampus compared with placebo, TMS phase ([2]; prefrontal TMS, time points 14-17, 8 subjects, t=−2.69, p=0.009): significantly increased
- adverse effects of the drug treatment or the stimulation [3]: None of the subjects reported experiencing adverse effects
